Measured values from PubChem BioAssay AID2060903 (Molecular Pharmacology Branch, DTP, NCI, 2025).

System: 377384-186-R-J1-PDC complex spheroid viability
Test: Anticancer human tumor 377384-186-R-J1-PDC patient-derived pancreatic carcinoma cell line growth inhibition [RAS]
Conditions: for IC50: curve of first compound; for viability, T/C: stronger effect = lower value
Source text: RAS pathway inhibitors in Combinations in Complex Spheroids
A high-throughput screen of multi-cell type tumor spheroids was designed to identify active combinations of RAS pathway inhibitors and targeted small molecules. Complex spheroids include a stromal component modeled by human endothelial cells (HUVEC) and fibroblasts modeled by human mesenchymal stem cells (MSCs). The concentration ranges selected for each drug and investigational agent were based upon clinically achievable concentrations if the clinical Cmax of the agent was known.
Compounds. The drugs and investigational agents: abemaciclib (NSC768073), cobimetinib (NSC768068), divarasib (GDC6063, NSC841802), docetaxel (NSC628503), GDC-1971 (RLY-1971, NSC841576), gemcitabine (NSC613327), inavolisib (NSC800729), ipatasertib (NSC767898), KB-0742 (NSC834161), MRTX-1133 (NSC836407), osimertinib (NSC779217), RMC-4630 (NSC839698), RMC-6236 (NSC851965), RMC-6291 (NSC852671), Ro-3306 (NSC812927), sapanisertib (NSC764658), SN-38 (NSC673596), staurosporine (NSC755774), SY5609 (NSC837396), and tovorafenib (DAY101, NSC766906), were obtained from the National Cancer Institute (NCI) Developmental Therapeutics Program Chemical Repository. The FDA-approved anticancer drug set is available from the NCI Developmental Therapeutics Program. […] The stock solutions were prepared in dimethyl sulfoxide (DMSO, Sigma-Aldrich, St. Louis, MO, cat. D2650) at 800-fold the tested concentration and stored at -70 degrees C prior to their use. All drugs and investigational agents were tested over a range starting from a high concentration at or near the clinical Cmax and decreasing in half-log increments. If the clinical Cmax for an agent had not been determined, the highest concentration tested was 10 microM.
Cell Culture. All cells were maintained in an incubator at 37 degrees C and 5% CO2 with 95% humidity. The PDC lines were cultured according to standard operating procedures established by the NCI PDMR. All PDCs were thawed and cultured in Matrigel-coated flasks prepared with a working solution of 1X Ham's F-12 nutrient mix, without supplementation (Invitrogen, Waltham, MA, cat. 11765054), 100 U/mL penicillin-streptomycin (Invitrogen, cat. 15140122), and 2.5% Matrigel (Corning Inc., Corning, NY, cat. 354248) for the first three passages. The 362531-283-R-J2-PDC and 782815-120-R-J1-PDC lines were cultured in 6C/Colon 1B media, which includes advanced DMEM/F-12 (Thermo Fisher Scientific, cat. 12634028), 10 mM HEPES (Thermo Fisher Scientific, cat. 15630080), 1X GlutaMAX supplement (Thermo Fisher Scientific, cat. 35050061), 0.1 mg/mL primocin (InvivoGen, San Diego, CA, cat. ant-pm-2), 10% defined fetal bovine serum, heat inactivated (HyClone Laboratories Inc., Logan, UT, cat. SH30070.03HI), 50% L-WRN conditioned media (ATCC, cat. CRL-3276), 1.25 mM N-Acetyl-L-cysteine (Sigma-Aldrich, cat. A9165), 10 mM nicotinamide (Sigma-Aldrich, cat. N0636), 1X B-27 supplement (Thermo Fisher Scientific, cat. 17504044), 1X N-2 supplement (Thermo Fisher Scientific, cat. 17502048), 50 ng/mL human EGF (Thermo Fisher Scientific, cat. PHG0311), and 10 microM Y-27632 dihydrochloride (Tocris Bioscience, cat. 1254). The K12877-001-R-J1-PDC line was cultured in 6I media, which includes all 6C/Colon 1B media plus 10 ng/mL human FGF-10 (PeproTech, cat. 100-26), 1 ng/mL human FGF-2 (PeproTech, cat. 100-18B), 1 µM prostaglandin E2 (Tocris Bioscience, cat. 2296), […] hydrocortisone (Sigma-Aldrich, cat. H4001), and […] bovine insulin (Sigma-Aldrich, cat. I6634). The K86415-001-R-J1-PDC line was cultured in 6D media, which includes all 6C/Colon 1B media components minus the L-WRN conditioned media. The 485176-168-R4-J1-PDC was cultured in PANC media, which includes all 6C/Colon 1B media plus 100 ng/mL human FGF-10 (PeproTech, cat. 100-26), 500 nM SB-431542 (Selleckchem, cat. S1067), and 10 nM gastrin (Tocris Bioscience, cat. 3006). […]
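Note: spheroids exposed to compounds for seven days before readout.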

## CC1(C)CCC(Nc2ncc(C(F)(F)F)c(-c3c[nH]c4c(P(C)(C)=O)c(C#N)ccc34)n2)CN1 (configuration not stated) + CCn1c(-c2cc(N3CCN(C)CC3)cnc2C(C)OC)c2c3cc(ccc31)-c1csc(n1)CC(NC(=O)C1CC1C)C(=O)N1CCCC(N1)C(=O)OCC(C)(C)C2
Second compound 0.000949 µM
  IC50: < 0.949 nM
Second compound 0.003 µM
  IC50: < 0.949 nM
Second compound 0.00949 µM
  IC50: < 0.949 nM
Second compound 0.03 µM
  IC50: < 0.949 nM
Second compound 0.0949 µM
  IC50: < 0.949 nM
Second compound 0.3 µM
  IC50: < 0.949 nM
Second compound 0.000949 µM, first compound 0.000949 µM
  viability, T/C: 42.6%
Second compound 0.000949 µM, first compound 0.003 µM
  viability, T/C: 37.1%
Second compound 0.000949 µM, first compound 0.00949 µM
  viability, T/C: 22.9%
Second compound 0.000949 µM, first compound 0.03 µM
  viability, T/C: 16.4%
Second compound 0.000949 µM, first compound 0.0949 µM
  viability, T/C: 14.9%
Second compound 0.000949 µM, first compound 0.3 µM
  viability, T/C: 14%
Second compound 0.003 µM, first compound 0.000949 µM
  viability, T/C: 21.9%
Second compound 0.003 µM, first compound 0.003 µM
  viability, T/C: 16.8%
Second compound 0.003 µM, first compound 0.00949 µM
  viability, T/C: 10.4%
Second compound 0.003 µM, first compound 0.03 µM
  viability, T/C: 9.92%
Second compound 0.003 µM, first compound 0.0949 µM
  viability, T/C: 11.7%
Second compound 0.003 µM, first compound 0.3 µM
  viability, T/C: 8.33%
Second compound 0.00949 µM, first compound 0.000949 µM
  viability, T/C: 6.47%
Second compound 0.00949 µM, first compound 0.003 µM
  viability, T/C: 5.75%
Second compound 0.00949 µM, first compound 0.00949 µM
  viability, T/C: 5.48%
Second compound 0.00949 µM, first compound 0.03 µM
  viability, T/C: 5.23%
Second compound 0.00949 µM, first compound 0.0949 µM
  viability, T/C: 5.63%
Second compound 0.00949 µM, first compound 0.3 µM
  viability, T/C: 5.21%
Second compound 0.03 µM, first compound 0.000949 µM
  viability, T/C: 2.48%
Second compound 0.03 µM, first compound 0.003 µM
  viability, T/C: 2.69%
Second compound 0.03 µM, first compound 0.00949 µM
  viability, T/C: 2.99%
Second compound 0.03 µM, first compound 0.03 µM
  viability, T/C: 3.34%
Second compound 0.03 µM, first compound 0.0949 µM
  viability, T/C: 2.03%
Second compound 0.03 µM, first compound 0.3 µM
  viability, T/C: 1.64%
Second compound 0.0949 µM, first compound 0.000949 µM
  viability, T/C: 2.02%
Second compound 0.0949 µM, first compound 0.003 µM
  viability, T/C: 2.11%
Second compound 0.0949 µM, first compound 0.00949 µM
  viability, T/C: 1.57%
Second compound 0.0949 µM, first compound 0.03 µM
  viability, T/C: 1.95%
Second compound 0.0949 µM, first compound 0.0949 µM
  viability, T/C: 1.46%
Second compound 0.0949 µM, first compound 0.3 µM
  viability, T/C: 1.6%
Second compound 0.3 µM, first compound 0.000949 µM
  viability, T/C: 1.8%
Second compound 0.3 µM, first compound 0.003 µM
  viability, T/C: 1.64%
Second compound 0.3 µM, first compound 0.00949 µM
  viability, T/C: 1.69%
Second compound 0.3 µM, first compound 0.03 µM
  viability, T/C: 2.15%
Second compound 0.3 µM, first compound 0.0949 µM
  viability, T/C: 1.77%
Second compound 0.3 µM, first compound 0.3 µM
  viability, T/C: 1.54%
